From US20140171465A1, “Methods For Increasing Reticulocyte Hemoglobin Content” (FibroGen, Inc., priority 2011, published 2014)

Experiments:
Assay type in all cases: in vivo
[1] = system: human subjects with stage 3 and stage 4 chronic kidney disease; test: Reticulocyte hemoglobin content (CHr) in human subjects with stage 3 or stage 4 chronic kidney disease, 17 weeks
Method: The effect of compound of the present invention on CHr was determined in human subjects with stage 3 and stage 4 chronic kidney disease patients (eGFR<60 ml/min) as follows. Subjects with stage 3 or stage 4 chronic kidney disease not receiving dialysis were administered Compound A at either approximately 1.2 mg/kg twice weekly or 70 mg fixed dose thrice weekly for a period of 17 weeks. Dose adjustments were permitted from week 5 onward to correct and maintain subjects to a target hemoglobin range; however, doses were not allowed to exceed 2.5 mg/kg per dose. CHr values were measured at week 9 and week 17.

[2] = system: human subjects with end-stage renal disease; test: Mean hemoglobin levels in human subjects with end-stage renal disease, 6 weeks TIW; settings: six week treatment period; Compound A 1.5 mg/kg and 2.0 mg/kg TIW; epoetin alfa TIW
human patients = test: Safety and efficacy of tested doses in human patients; settings: doses between 0.7 and 2.5 mg/kg administered TIW, BIW, or QW
Source text: In a particular embodiment, the present invention provides an efficacious therapeutic compound for treating a subject having reduced reticulocyte hemoglobin content. Specifically, the invention comprises the compound [(4-hydroxy-1-methyl-7-phenoxy-isoquinoline-3-carbonyl)-amino]-acetic acid for use in methods of increasing reticulocyte hemoglobin content (CHr) in a subject.

[3] = system: human subjects with end-stage renal disease; test: Reticulocyte hemoglobin content (CHr) in human subjects with end-stage renal disease, 6 weeks TIW; settings: for Mean Change (pg) from Baseline CHr at Day 43 (6 weeks) of Treatment: ESRD on hemodialysis, no IV iron
Method: The effect of a compound of the present invention on CHr was determined in human subjects with end-stage renal disease as follows. In the current studies, subjects had been receiving stable maintenance hemodialysis for at least 4 months prior to the initiation of the present study. Additionally, subjects had been maintained on standard of care stable doses of epoetin alfa for the treatment of anemia prior to initiation of the present study.
In order to examine differences in the CHr response in subjects treated with compound of the invention compared to the CHr response in subject treated with epoetin alpha (the current standard of care), all IV iron supplementation was halted two weeks prior to treatment initiation. Administration of oral iron was allowed.
[…] Baseline CHr levels were determined prior to treatment (mean of two screening period measurements with the Day 1 measurement). CHr levels were measured weekly throughout the six-week study period.
In contrast, CHr decreased in subjects treated with epoetin alfa during the same time period.

**Q.** Which results are given for `Cc1nc(C(=O)NCC(=O)O)c(O)c2ccc(Oc3ccccc3)cc12` [Compound A, [(4-hydroxy-1-methyl-7-phenoxy-isoquinoline-3-carbonyl)-amino]-acetic acid]?
**A.** maintenance of mean CHr (FIG. 3B) ([1]; 70 mg fixed dose TIW, weeks 9 to 17): maintenance of mean CHr from 9 to 17 weeks; mean CHr over time (FIG. 3A, 3B) ([1]; approximately 1.2 mg/kg BIW or 70 mg TIW, 17 weeks, CKD stage 3/4 not on dialysis): mean CHr increased over time; changes in mean hemoglobin levels (FIG. 2) [2]: time-dependent increase in mean hemoglobin levels; safety and efficacy of tested doses (human patients): safe, useful, and effective; Mean Change (pg) from Baseline CHr at Day 43 (6 weeks) of Treatment ([3]; 1 mg/kg TIW, N = 10): +0.41 pg; mean increase in CHr over baseline after 6 weeks of treatment ([3]; 1.3 mg/kg TIW (N=5)): 0.85 pg/cell; Mean Change (pg) from Baseline CHr at Day 43 (6 weeks) of Treatment ([3]; 1.5 mg/kg TIW, N = 9): +0.10 pg; mean increase in CHr over baseline after 6 weeks of treatment ([3]; 1.8 mg/kg TIW (N=5)): 0.82 pg/cell; Mean Change (pg) from Baseline CHr at Day 43 (6 weeks) of Treatment ([3]; 2.0 mg/kg TIW, N = 9): +0.44 pg; change from baseline of the mean CHr over time (FIG. 1) ([3]; six week treatment period, Compound A 1.0, 1.5 and 2.0 mg/kg TIW, epoetin alfa TIW): increase in mean CHr over time
